The text below walks through data of US7858790B2, “Modulators of muscarinic receptors” (Vertex Pharmaceuticals Incorporated, priority 2006, dated 2010).

The target of test [1] is T1, M4 muscarinic receptor (Homo sapiens, UniProt P08173).
T1 construct: expressed in transfected cells; host or cells: CHO (M4-CHO recombinant cell line)
T1 sequence (P08173 1-479): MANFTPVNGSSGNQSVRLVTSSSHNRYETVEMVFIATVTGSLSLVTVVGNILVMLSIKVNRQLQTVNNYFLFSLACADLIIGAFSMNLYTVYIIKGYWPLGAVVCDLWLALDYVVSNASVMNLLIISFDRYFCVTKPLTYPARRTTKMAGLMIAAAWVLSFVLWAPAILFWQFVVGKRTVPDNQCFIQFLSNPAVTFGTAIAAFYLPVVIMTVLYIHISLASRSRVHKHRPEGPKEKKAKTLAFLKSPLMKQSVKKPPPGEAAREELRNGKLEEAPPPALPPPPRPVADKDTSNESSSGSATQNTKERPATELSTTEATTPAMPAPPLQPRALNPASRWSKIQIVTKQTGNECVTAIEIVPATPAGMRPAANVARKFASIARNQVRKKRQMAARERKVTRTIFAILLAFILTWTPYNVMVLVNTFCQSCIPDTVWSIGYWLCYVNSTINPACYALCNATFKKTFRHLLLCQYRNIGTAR
The experiment in a line: Functional mobilization of intracellular calcium (FLIPR) in CHO cells expressing M4 muscarinic receptor. To be noted: for Emax: CHO, 100% efficacy is the maximum response obtained with the Carbachol control; for M4 Activity: CHO cells expressing M4, calcium mobilization. The test is classed as cell-based. As for the experimental part: (§1) VI. Assays for Detecting and Measuring Inhibition Properties of Compounds Functional Mobilization of Intracellular Calcium to Determine Muscarinic Receptor Activity:
(§2) CHO cells expressing muscarinic receptors (M1 to M5) are grown as monolayers in tissue culture flasks at 37° C. in a humidified atmosphere containing 5% CO2 and passaged every 3-5 days. The growth media is Dulbecco's modified eagles medium (DMEM, Gibco Cat# 12430-054), containing 25 mM Hepes and supplemented with Fetal Bovine Serum (Hyclone, cat# SH30071.03), 0.1 mM of MEM non-essential amino acids (GIBCO, Cat# 11140-050), 1 mM MEM Sodium Pyruvate (GIBCO Cat# 11360-070) and 100 units/ml of Penicillin G and 100 μg/ml of Streptomycin (GIBCO Cat# 15140-122). The recombinant muscarinic receptor cell lines are grown under antibiotic pressure with media containing 25 μg/ml zeocin and 500 μg/ml G418 (M1-CHO), 4 μg/ml puromycin, 50 μg/ml zeocin and 2.5 μg/ml blasticidin (M2 and M4-CHO) or 50 μg/ml zeocin and 4 μg/ml puromycin (M3 and M5-CHO).
(§3) Cells are harvested at 80-90% confluence using Versene (GIBCO Cat# 15040-066), collected by centrifugation and seeded 18-24 hours prior to running the calcium assay at a density of 5,000-10,000 cells/well in […], clear-bottomed 384-well plates (BD Biocoat, poly-D-lysine, Cat#356663). The day of the experiment, the cells are washed with a plate washer (Bioteck Instruments, ELX 405) using bath buffer (140-mM NaCl, 4.5-mM KCl, 2-mM CaCl2, 1-mM MgCl2, 10-mM Hepes-Na, 10-mM Glucose, pH 7.4, with NaOH) containing 1 mM Probenecid. Next, the calcium dye Fluo-3 (25 μl/well of Fluo-3 μM at 4 μM, Molecular Probes F-1241, in Bath 1 buffer containing 1 mM Probenecid) is added to the 25 μl of Bath 1 remaining in each well after the plate wash and the dye is loaded at 37° C. in the tissue culture incubator for 60-90 min. The fluorescent dye is removed using the plate washer with Bath 1 containing 1 mM Probenecid, leaving 25 μl/well of this solution after the wash. Alternatively, cells can be loaded with the calcium indicator from Molecular Devices (Calcium 3 Assay Reagents, Cat # R7181) adding 5 μl of a 5× solution dye in Bath 1 containing 1 mM Probenecid (10 ml per dye flask cat# R7182 to generate a solution 20×) to 20 μl of the same buffer. After loading for 60 min, the experiment can be run without having to remove the dye.
(§4) Compounds are prepared at a 2× fold concentration in a 96-well plate (round bottom, Costar Corning cat# 3656), by reconstituting the pre-spotted compounds in bath 1 containing 1 mM probenecid. The final concentration DMSO is 0.5%, and the amount of DMSO is normalized across the assay plate. To determine an agonist action of the compounds on muscarinic receptors, the reconstituted compounds are added (25 μl compound/well) to the cell assay plate (containing 25 μl/well) using the multi-channel robotic system of the FLIPR 3 Instrument (Molecular Devices, Sunnyvale, Calif.). To determine a functional inhibitory-action of the compounds on muscarinic receptors, the reconstituted compounds are added (25 μl compound/well) to the assay plate and pre-incubated for 15 min prior to adding 25 μl of Carbachol at 3× the EC80 for each muscarinic subtype. Alternatively, the compounds can be co-applied simultaneously with the agonist. In both assay modes, the fluorescence is recorded for 60 sec (excitation wavelength is […] and emission wavelength 540 nm) using the FLIPR 3 instrument.
(§5) The potency, efficacy and selectivity of the muscarinic compounds were evaluated by screening the compound activity across the whole family (M1 to M5 cells). Compounds were also screened for activity on other proteins such as other GPCRs and ion channels to determine selectivity on M4 receptors.
(§6) Examples of activities and efficacies of the muscarinic compounds of formulae (I, Ia, and Ib) on modulating M1 and M4 receptors are shown below in Table 8. […]
For orientation: Calcium assays in cells follow changes in intracellular calcium, usually with a dye or a luminescent sensor.

The target of test [2] is T2, M1 muscarinic receptor (Homo sapiens, UniProt P11229).
T2 construct: expressed in transfected cells; host or cells: CHO (M1-CHO recombinant cell line)
T2 sequence (P11229 1-460): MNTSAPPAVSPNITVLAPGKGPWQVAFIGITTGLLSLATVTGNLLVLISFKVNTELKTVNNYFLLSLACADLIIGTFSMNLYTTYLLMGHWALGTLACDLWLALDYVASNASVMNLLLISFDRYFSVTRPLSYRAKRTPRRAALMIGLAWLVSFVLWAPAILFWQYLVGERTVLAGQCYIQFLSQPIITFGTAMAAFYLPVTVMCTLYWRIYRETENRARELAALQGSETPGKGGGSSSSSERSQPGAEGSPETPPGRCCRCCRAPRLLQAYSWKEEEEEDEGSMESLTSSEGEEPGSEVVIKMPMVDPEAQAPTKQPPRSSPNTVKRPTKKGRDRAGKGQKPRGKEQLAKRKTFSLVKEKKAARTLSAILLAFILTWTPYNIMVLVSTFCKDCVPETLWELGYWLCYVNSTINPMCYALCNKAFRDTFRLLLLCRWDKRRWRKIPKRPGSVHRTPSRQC
The experiment in a line: Functional mobilization of intracellular calcium (FLIPR) in CHO cells expressing M1 muscarinic receptor. The following applies: for Emax: CHO, 100% efficacy is the maximum response obtained with the Carbachol control; for M1 Activity: CHO cells expressing M1, calcium mobilization. It counts as cell-based. As for the experimental part: as §1, §2, §3, §4, §5, §6

On to `CCC(CC)NC(=O)C1=CC2(CCN(C3C[C@@H]4CC[C@@H]3C4)CC2)c2ccccc21` (stereo in doubt) [Compound No. 14, 1′-(bicyclo[2.2.1]heptan-2-yl)-N-(pentan-3-yl)spiro[indene-1,4′-piperidine]-3-carboxamide], for which the Emax in test [1] was 25 to 100%; in test [2], less than 25%.

In the case of `CNC(=O)C1=CC2(CCN(C3C[C@@H]4CC[C@@H]3C4)CC2)c2ccccc21` (stereo in doubt) [Compound No. 38, 1′-(bicyclo[2.2.1]heptan-2-yl)-N-methylspiro[indene-1,4′-piperidine]-3-carboxamide], in test [1], the “M4 Activity” value was “+++ (activity was measured to be less than 2.0 μM)” and the Emax is 25 to 100%. Further, in test [2], the “M1 Activity” value is given as “+ (activity was measured to be greater than 10.0 μM)” and the Emax lay within 25 to 100%.

On to `O=C(O)C1=CC2(CCN(C3C[C@@H]4CC[C@@H]3C4)CC2)c2ccccc21` (stereo in doubt) [Compound No. 48, 1′-(bicyclo[2.2.1]heptan-2-yl)spiro[indene-1,4′-piperidine]-3-carboxylic acid], for which, in test [1], the “M4 Activity” value is “+ (activity was measured to be greater than 10.0 μM)” and the Emax was in the range of 25 to 100%. In addition, in test [2], the “M1 Activity” value is given as “+ (activity was measured to be greater than 10.0 μM)” and the Emax was 25 to 100%.

For the compound `CCC(CC)NC(=O)C1=CC2(CCN(C3CCCCCC3)CC2)c2ccccc21` [Compound No. 3], in test [1], the “M4 Activity” value is on record as “++ (activity was measured to be from 2.0 μM to 10.0 μM)” and the Emax is 25 to 100%. In addition, in test [2], the “M1 Activity” value is “+ (activity was measured to be greater than 10.0 μM)” and the Emax is less than 25%.

Regarding `CNC(=O)C1=CC2(CCN(CC3CCCCC3)CC2)c2ccccc21` [Compound No. 6], in test [1], the “M4 Activity” value is recorded as “+++ (activity was measured to be less than 2.0 μM)” and the Emax lay within 25 to 100%. Moreover, in test [2], the “M1 Activity” value is recorded as “+ (activity was measured to be greater than 10.0 μM)” and the Emax lay within 25 to 100%.

As to `CC(C)(C)CCN1CCC2(C=C(C(=O)O)c3ccccc32)CC1` [Compound No. 20, 1′-(3,3-dimethylbutyl)spiro[indene-1,4′-piperidine]-3-carboxylic acid], in test [1], the “M4 Activity” value is recorded as “+++ (activity was measured to be less than 2.0 μM)” and the Emax was less than 25%. Also, in test [2], the “M1 Activity” value is “+ (activity was measured to be greater than 10.0 μM)” and the Emax was less than 25%.

As for `CNC(=O)C1=CC2(CCN(CCC(C)(C)C)CC2)c2ccccc21` [Compound No. 27, 1′-(3,3-dimethylbutyl)-N-methylspiro[indene-1,4′-piperidine]-3-carboxamide], in test [1], the “M4 Activity” value is reported as “+++ (activity was measured to be less than 2.0 μM)” and the Emax lay in the range of 25 to 100%. In addition, in test [2], the “M1 Activity” value is listed as “+++ (activity was measured to be less than 2.0 μM)” and the Emax fell in the range of 25 to 100%.

Turning to `CC(C)(C)CCN1CCC2(C=C(C(=O)N3CCCCC3)c3ccccc32)CC1` [Compound No. 37], in test [1], the “M4 Activity” value is on record as “+++ (activity was measured to be less than 2.0 μM)” and the Emax lay in the range of 25 to 100%. In addition, in test [2], the “M1 Activity” value is on record as “+++ (activity was measured to be less than 2.0 μM)” and the Emax fell in the range of 25 to 100%.

With `CCC(CC)NC(=O)C1=CC2(CCN(CC3CCCCC3)CC2)c2ccccc21` [Compound No. 68, 1′-(cyclohexylmethyl)-N-(pentan-3-yl)spiro[indene-1,4′-piperidine]-3-carboxamide], the Emax is 25 to 100% in test [1] and less than 25% in test [2].

`CCOC(=O)N1CCC(N2CCC3(CC=C(C(=O)N(C)C)c4ccccc43)CC2)CC1` [compound 4, ethyl 4-(4-(dimethylcarbamoyl)-2H-spiro[naphthalene-1,4′-piperidine]-1′-yl)piperidine-1-carboxylate]: in test [1], the “M4 Activity” value is on record as “+++ (activity was measured to be less than 2.0 μM)” and the Emax was in the range of 25 to 100%. In test [2], the “M1 Activity” value is on record as “+++ (activity was measured to be less than 2.0 μM)” and the Emax fell in the range of 25 to 100%.

In the case of `CCOC(=O)N1C2CCC1CC(N1CCC3(CC=C(C(=O)N4CCCC4)c4ccccc43)CC1)C2` (centres unmarked) [compound 5], in test [1], the “M4 Activity” value is “+++ (activity was measured to be less than 2.0 μM)” and the Emax lay in the range of 25 to 100%. In test [2], the “M1 Activity” value was “+++ (activity was measured to be less than 2.0 μM)” and the Emax fell in the range of 25 to 100%.

Take `CCC(CC)NC(=O)C1=CC2(CCN(C3CCNCC3)CC2)c2ccccc21` [compound 7]: in test [1], the “M4 Activity” value was “+ (activity was measured to be greater than 10.0 μM)” and the Emax is less than 25%. In test [2], the “M1 Activity” value was “+ (activity was measured to be greater than 10.0 μM)” and the Emax is less than 25%.

In the case of `CNC(=O)C1=CC2(CCN(CCC3CCOCC3)CC2)c2ccccc21` [compound 8], in test [1], the “M4 Activity” value is listed as “+ (activity was measured to be greater than 10.0 μM)” and the Emax is less than 25%. In test [2], the “M1 Activity” value is reported as “+ (activity was measured to be greater than 10.0 μM)” and the Emax was 25 to 100%.

In the case of `CNC(=O)C1=CC2(CCN(CCC3CCSCC3)CC2)c2ccccc21` [compound 9], in test [1], the “M4 Activity” value was “+ (activity was measured to be greater than 10.0 μM)” and the Emax was less than 25%. For the same compound, in test [2], the “M1 Activity” value is “+ (activity was measured to be greater than 10.0 μM)” and the Emax lay within 25 to 100%.

With `CCC(CC)NC(=O)C1=CC2(CCN(C3CCN(C(C)=O)CC3)CC2)c2ccccc21` [compound 10], in test [1], the “M4 Activity” value is listed as “+ (activity was measured to be greater than 10.0 μM)” and the maximal effect (Emax) is less than 25%. Also, in test [2], the “M1 Activity” value is “+ (activity was measured to be greater than 10.0 μM)” and the Emax was less than 25%.

The Emax is the maximal effect, on the per cent scale that the assay sets.
